The subject of one test is mouse. Nature of the test: forced swimming test in mouse (antidepressant action). To be noted: for Immobile time average value / non-moving time: male ICR mice; for Immobile time average value: single forced oral dose 1 h before test (methocarbamol 200 mg/kg; etizolam 0.033 mg/kg), non-moving time in last 7 of 10 min, n=10; for non-moving time: single oral dose 1 h before test (methocarbamol 200 mg/kg; etizolam 0.033 mg/kg), last 7 of 10 min, medium control 230.8 seconds. It is filed as in vivo. The text has this:
The antidepressant action of a test substance may be evaluated using a “forced swimming method” in a mouse model.
The forced swimming test in mouse models is an animal experimental method for confirming the antidepressant activity proposed by Porsalt (Arch. Int, pharmacydn. 229.327-336 (1977)).
A mouse placed into a pool indicates either an active state or a non-moving state. Decreases in the non-moving state of the mouse is used as an index to confirm the antidepressant action of a pharmaceutical composition.
The pool used for forced swimming was a glass cylindrical container 30 cm in height and 16 cm in inner diameter filled at a water depth of 20 cm at 25° c.
One hour before the test, 10 mL/kg of the above prepared methocarbamol aqueous solution was administered to the mouse only once (200 mg/kg in methocarbamol conversion).
The administration route was a forced oral administration using an installed mice oral administration sonde made by FUCHIGAMI with a syringe for injection made by TERUMO.
After one hour of forced administration, the mouse was placed in the forced swimming pool described above and left for 10 minutes.
The first three minutes after entering were considered a conditioning period, and the mouse's non-moving time in the remaining 7 minutes was measured.
“Non-motion” was defined by the mouse not moving the anterior limb and the posterior limb, and by a state in which the upper side of the neck is lifted from the water surface and floats.
The “non-moving time” was the sum of “non-motion” time.
The test was repeated 10 times for each mouse, and an average value was calculated.
An etizolam aqueous solution was used in place of a methocarbamol aqueous solution. The same test as described above (1) was performed, but with the administration amount converted to etizolam usage at 0.0333 mg/kg.
Distilled water not containing a pharmaceutical was used in place of the methocarbamol aqueous solution in the same manner as described above (1).
The average non-moving time values of the medium control group (n=10), the examples, and comparative examples (n=10) were compared with each other.

In another test the test system is depression patients. Nature of the test: Test for administration to depression patients. It is filed as in vivo, human. As to the method: Test for administration to depression patients (embodiment 1) A 500 mg bolaxin tablet (manufactured by Ying-Yuan chemical pharmaceutical co. ltd.) and 500 mg-containing (methocarbamol content 76% mass) were prepared. A subject suffering from depression for two or more years was selected. A pharmaceutical composition was administered to the patient three times a day, and the administration was continued for one week. The dose on the initial day was 3.0 to 4.5 g/day (converted to methocarbamol). After observing the patient's state, it was increased to 6.0 g/day (converted to methocarbamol). The regular drug in addition to the tested pharmaceutical composition was continuously taken, but drinking was prohibited during the test. After one week, a potential depression improvement effect before and after administration was evaluated. The evaluation investigated a significant difference in two-term judgment of two related groups. The evaluation was judged based on a declaration of whether the subjects felt an improvement in thinking, desires, and fatigue.

Where [1] appears, read: N=5 depression patients, bolaxin tablets three times a day for one week, 3.0 to 4.5 g/day increased to 6.0 g/day as methocarbamol.

As for `CCc1cc2c(s1)-n1c(C)nnc1CN=C2c1ccccc1Cl` [Reagent E-1, Etizolam], in the test with mouse, the “Immobile time average value” turned out to be 107.3 s and the non-moving time was 107.3 s.

Consider `COc1ccccc1OCC(O)COC(N)=O` (centres unmarked) [Reagent M-1, Methocarbamol], for which, in the test on depression patients (setting [1]), the “Effective (subjects declaring improvement in thinking, desires and fatigue)” value is listed as 5 persons; the No effect is listed as 0 persons. Further, the depression treatment effect entry in the test with depression patients (depression patients, one week of administration) is listed as “beneficial depression treatment effect”. Besides, in the test on mouse, the “Immobile time average value” came out at 157.7 s and the non-moving time was 157.7 s. In addition, the “antidepressant effect compared with etizolam group (forced swimming)” value in the test with mouse (methocarbamol 200 mg/kg oral vs etizolam 0.033 mg/kg oral) was “essentially the same effect as the etizolam administration group”.

The record behind these values is patent publication US11364218B2, “Method of treating or preventing mood disorders, mental disorders, and/or chronic fatigue syndrome” (priority 2016, dated 2022).
